Here are results for one molecule from patent US12121518B2, “PARP-1 and methods of use thereof” (The Board of Supervisors of Louisiana State University and …, priority 2017, dated 2024).

For assay [1], the system named is steroid-resistant asthma. The assay is described as follows: Ovalbumin/LPS/IFNγ-based mouse model of steroid-resistant asthma. In kind it is in vivo. The settings on record: 5 mg/kg. As for the experimental part:
Balb/c mice were sensitized by i.p. injection of 20 μg of Ova in 2.25 mg aluminium hydroxide on days 1 and 14. Steroid resistance was induced by intranasal instillation of Lps (10 μg/mouse) on day 27. Mice were treated with s.c injection of dexmethasone (5 mg/kg) on days 29 and 30. Mice were challenged with aerosolized 1% OVA on days 28, 29, 30 for 20 minutes. Airway hyper responsiveness was measured using plesthesmography 24 hours after the last OVA challenge. Statistics are not included.
Balb I c mice were sensitized by i.p. injection of 20 μg of Ova in 2.25 mg aluminium hydroxide on days 1 and 14. Steroid resistance was induced by intranasal instillation of Lps (10 µg/mouse) on day 27. Mice were treated with s.c injection of dexmethasone (5 mg/kg) on days 29 and 30. Mice were challenged with aerosolized 1% OVA on days 28, 29, 30 for 20 minutes. All mice were euthanized 48 hours after the last OVA challenge then subjected to broncholaveolar lavage. Inflammatory cells were differentiated and assessed using Diff Quick staining. Statistics are not included.
Balb/c mice were sensitized by i.p. injection of 20 μg of Ova in 2.25 mg aluminium hydroxide on days 1 and 14. Steroid resistance was induced by intranasal instillation of Lps (10 μg/mouse) on day 27. Mice were treated with s.c injection of dexmethasone (5 mg/kg) on days 29 and 30. Mice were challenged with aerosolized 1% OVA on days 28, 29, 30 for 20 minutes. All mice were euthanized 48 hours after the last OVA challenge. Cytokines were measured in the collected serum and BAL fluid using multiplex assay. And IgE production was assessed busing sandwich ELISA. Statistics are not included.
Objective: To investigate whether PARP inhibition could restore steroid sensitivity to block LPS/IFN-γ-induced neutrophilia and AHR in steroid-resistant asthma model of the disease. Methods: An ovalbumin/LPS/IFNγ-based model of steroid-resistant murine asthma and an airway epithelial cell culture system were used in this study.

Assay [2] deals with perforin. The assay is described as follows: Perforin immunoblot in CD3/CD28-stimulated spleen CD3+ T cells. In kind it is cell-based. The conditions noted are these: 3 days. The method, then:
CD3^+ T cells were isolated from spleen then stimulated with antibodies to CD3 and CD28 for 3 days. Protein extracts were analyzed by immunoblotting with antibodies to perforin (a marker of T cell function) or GAPDH. Note that the 4 nM concentration increased, while the 1 mM decreased, perforin levels.
On the technique in general: In western blotting, separated proteins are transferred to a membrane and probed.

Assay [3] has as its system VCAM-1 and COX2. The assay is described as follows: TNF-α-induced VCAM-1 and COX2 expression in colon epithelial cells (immunoblot). In kind it is cell-based, mouse. The settings on record: TNF-α-treated colon epithelial cells, 5 μM. As for the experimental part: Referring to FIG. 1, for example, colon epithelial cells were treated with TNF-α for the indicated time intervals in the presence or absence 5 μM of the PARP inhibitor AZD2281.
Cell isolation, culture, treatments, RNA extraction, cDNA synthesis and quantitative PCR—Primary CEC were isolated essentially as described (29). The mouse colon adenocarcinoma (MC-38 or CT-26), Jurkat T, RAW264.7, or 3LL lung carcinoma cell lines were purchased from Kerafast (Boston, MA) or ATCC (Manassas, VA). Mouse embryonic fibroblasts were derived from WT, PARP-1^+/−, or PARP mice using standard protocols. CEC were serum-starved overnight in 0.5% FBS prior to treatment. […] Quantitative determination of gene expression levels using a 2-step cycling protocol was conducted on a MyIQ Cycler (Bio-Rad, Hercules, CA, USA). Relative expression levels were calculated using the 2[-Delta Delta C(T)] method. Quantities of all targets were normalized to the mouse β-actin gene.
Cell fractionation, protein extraction and immunoblot analysis—Tumor tissues or cells were harvested and homogenized in RIPA lysis buffer (Santa Cruz Biotechnology) containing a cocktail of protease and phosphatase inhibitors on ice. […] Protein expression signals developed by ECL (Pierce, ThermoFisher Scientific) were determined by a G:Box Gel Image Analysis System (Syngene, Cambridge, UK) equipped with the GeneSys image capture software.

The subject of assay [4] is allograft breast cancer. The conditions noted are these: 50 mg/kg daily; cited from earlier work.

On to `O=C(c1cc(Cc2n[nH]c(=O)c3ccccc23)ccc1F)N1CCN(C(=O)C2CC2)CC1` [olaparib], for which, in assay [1], the “OVA-specific IgE secretion in BALF and serum” value was “marked reduction in OVA-specific IgE secretion”; the Th2 cytokine production result is reported as “marked reduction in Th2 cytokine production”; the “established steroid-resistant asthma manifestation” value is on record as “reversed the established steroid-resistant asthma manifestation in mice”; the “infiltration of inflammatory cells into the airways” value is “blocked the infiltration of inflammatory cells into the airways”. Besides, the “perforin levels (marker of T cell function)” value in assay [2] (4 nM) is reported as “increased”. Besides, the “perforin levels (marker of T cell function)” value in assay [2] was “decreased”. For the same molecule, the “expression of inflammatory markers (VCAM-1 and COX2)” value in assay [3] is “inhibits the expression of inflammatory markers”. Moreover, the “effect on anti-PD1 immunotherapy” value in assay [4] was “enhances anti-PD1 immunotherapy”.
